Assay results as given in ChEMBL document CHEMBL1201862, “PubChem BioAssay data set” (2004).
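Growth conditions: 96-well plates. Treatment: test compound, 48 hours, 5 concentrations. Analysis: linear interpolation between bracketing concentrations; unreached endpoints set to highest concentration. GI50 is the concentration that inhibits growth by half.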 The source made the active and inactive calls. Rule as the data show it: active = GI50 up to about 1.1 µM and inactive = higher.

Key:
Test in all cases: NCI tumour cell line growth inhibition, 48 h
DMS-273 = system: DMS-273
LOX IMVI = system: LOX IMVI
SK-MEL-28 = system: SK-MEL-28
KM12 = system: KM12
K562 = system: K562
Malme-3M = system: Malme-3M
COLO 205 = system: COLO 205
NCI-H226 = system: NCI-H226
TK-10 = system: TK-10
MOLT-4 = system: MOLT-4
SW-620 = system: SW-620
UO-31 = system: UO-31
EKVX = system: EKVX
HOP-62 = system: HOP-62
SNB-19 = system: SNB-19
RXF 393 = system: RXF 393
OVCAR-8 = system: OVCAR-8
U-251 = system: U-251
NCI-H23 = system: NCI-H23
786-0 = system: 786-0
M19-MEL = system: M19-MEL
A549 = system: A549
SN12C = system: SN12C
SNB-75 = system: SNB-75
HCT-116 = system: HCT-116
HOP-92 = system: HOP-92
SF-295 = system: SF-295
SF-268 = system: SF-268
OVCAR-3 = system: OVCAR-3
IGROV-1 = system: IGROV-1
CCRF-CEM = system: CCRF-CEM
A498 = system: A498
SK-OV-3 = system: SK-OV-3
HCC 2998 = system: HCC 2998
SF-539 = system: SF-539
SK-MEL-2 = system: SK-MEL-2
CAKI-1 = system: CAKI-1
LXFL 529 = system: LXFL 529
NCI-H522 = system: NCI-H522
M14 = system: M14
ACHN = system: ACHN
SR = system: SR
XF498 = system: XF498
RPMI-8226 = system: RPMI-8226
OVCAR-5 = system: OVCAR-5
DLD-1 = system: DLD-1
NCI-H460 = system: NCI-H460
UACC-62 = system: UACC-62
OVCAR-4 = system: OVCAR-4
KM-20L2 = system: KM-20L2
HCT-15 = system: HCT-15
SK-MEL-5 = system: SK-MEL-5
HT-29 = system: HT-29
SNB-78 = system: SNB-78
DMS-114 = system: DMS-114
HL-60 = system: HL-60
HOP-18 = system: HOP-18
UACC-257 = system: UACC-257

## CCOC(=O)CN(Cc1ccccc1)Cc1c(C(=O)c2ccccc2)c2ccccc2n1C(=O)c1ccccc1
DMS-273
  GI50: > 100 µM (inactive)
LOX IMVI
  GI50: > 100 µM (inactive)
SK-MEL-28
  GI50: > 100 µM (inactive)
KM12
  GI50: > 100 µM (inactive)
K562
  GI50: > 100 µM (inactive)
Malme-3M
  GI50: > 100 µM (inactive)
COLO 205
  GI50: > 100 µM (inactive)
NCI-H226
  GI50: 60 µM (inactive)
TK-10
  GI50: > 100 µM (inactive)
MOLT-4
  GI50: 5.4 µM (inactive)
SW-620
  GI50: > 100 µM (inactive)
UO-31
  GI50: > 100 µM (inactive)
EKVX
  GI50: > 100 µM (inactive)
HOP-62
  GI50: > 100 µM (inactive)
SNB-19
  GI50: > 100 µM (inactive)
RXF 393
  GI50: > 10 µM (inactive)
OVCAR-8
  GI50: > 100 µM (inactive)
U-251
  GI50: > 100 µM (inactive)
NCI-H23
  GI50: > 100 µM (inactive)
786-0
  GI50: > 100 µM (inactive)
M19-MEL
  GI50: > 100 µM (inactive)
A549
  GI50: > 100 µM (inactive)
SN12C
  GI50: > 100 µM (inactive)
SNB-75
  GI50: 18.3 µM (inactive)
HCT-116
  GI50: 32.7 µM (inactive)
HOP-92
  GI50: 10.4 µM (inactive)
SF-295
  GI50: > 100 µM (inactive)
SF-268
  GI50: > 100 µM (inactive)
OVCAR-3
  GI50: > 100 µM (inactive)
IGROV-1
  GI50: > 100 µM (inactive)
CCRF-CEM
  GI50: > 100 µM (inactive)
A498
  GI50: > 100 µM (inactive)
SK-OV-3
  GI50: > 100 µM (inactive)
HCC 2998
  GI50: > 100 µM (inactive)
SF-539
  GI50: > 100 µM (inactive)
SK-MEL-2
  GI50: > 100 µM (inactive)
CAKI-1
  GI50: > 100 µM (inactive)
LXFL 529
  GI50: 8.57 µM (inactive)
NCI-H522
  GI50: > 100 µM (inactive)
M14
  GI50: > 100 µM (inactive)
ACHN
  GI50: > 100 µM (inactive)
SR
  GI50: 41 µM (inactive)
XF498
  GI50: 73.1 µM (inactive)
RPMI-8226
  GI50: 17.9 µM (inactive)
OVCAR-5
  GI50: > 100 µM (inactive)
DLD-1
  GI50: > 100 µM (inactive)
NCI-H460
  GI50: > 100 µM (inactive)
UACC-62
  GI50: > 100 µM (inactive)
OVCAR-4
  GI50: > 100 µM (inactive)
KM-20L2
  GI50: > 100 µM (inactive)
HCT-15
  GI50: > 100 µM
SK-MEL-5
  GI50: 96.8 µM (inactive)
HT-29
  GI50: > 100 µM (inactive)
SNB-78
  GI50: > 100 µM (inactive)
DMS-114
  GI50: > 100 µM (inactive)

## O=Cc1cc(O)c(O)c(O)c1-c1c(C=O)cc(O)c(O)c1O
DMS-273
  GI50: > 100 µM (inactive)
LOX IMVI
  GI50: > 100 µM (inactive)
SK-MEL-28
  GI50: > 100 µM (inactive)
KM12
  GI50: > 100 µM (inactive)
K562
  GI50: 67.6 µM (inactive)
Malme-3M
  GI50: > 100 µM (inactive)
COLO 205
  GI50: > 100 µM (inactive)
NCI-H226
  GI50: > 100 µM (inactive)
TK-10
  GI50: > 100 µM (inactive)
MOLT-4
  GI50: > 100 µM (inactive)
SW-620
  GI50: > 100 µM (inactive)
UO-31
  GI50: > 100 µM (inactive)
HL-60
  GI50: > 100 µM (inactive)
EKVX
  GI50: > 100 µM (inactive)
HOP-62
  GI50: > 100 µM (inactive)
SNB-19
  GI50: > 100 µM (inactive)
OVCAR-8
  GI50: > 100 µM (inactive)
U-251
  GI50: > 100 µM (inactive)
NCI-H23
  GI50: > 100 µM (inactive)
786-0
  GI50: > 100 µM (inactive)
M19-MEL
  GI50: > 100 µM (inactive)
A549
  GI50: > 100 µM (inactive)
SN12C
  GI50: > 100 µM (inactive)
SNB-75
  GI50: > 100 µM (inactive)
HCT-116
  GI50: > 100 µM (inactive)
SF-295
  GI50: > 100 µM (inactive)
SF-268
  GI50: > 100 µM (inactive)
OVCAR-3
  GI50: > 100 µM (inactive)
IGROV-1
  GI50: > 100 µM (inactive)
CCRF-CEM
  GI50: 85.7 µM (inactive)
HOP-18
  GI50: > 100 µM (inactive)
A498
  GI50: > 100 µM (inactive)
SK-OV-3
  GI50: > 100 µM (inactive)
HCC 2998
  GI50: > 100 µM (inactive)
SF-539
  GI50: > 100 µM (inactive)
SK-MEL-2
  GI50: > 100 µM (inactive)
CAKI-1
  GI50: > 100 µM (inactive)
LXFL 529
  GI50: > 100 µM (inactive)
NCI-H522
  GI50: > 100 µM (inactive)
M14
  GI50: > 100 µM (inactive)
ACHN
  GI50: > 100 µM (inactive)
SR
  GI50: 82.8 µM (inactive)
RPMI-8226
  GI50: 64.3 µM (inactive)
OVCAR-5
  GI50: > 100 µM (inactive)
DLD-1
  GI50: > 100 µM (inactive)
NCI-H460
  GI50: > 100 µM (inactive)
UACC-62
  GI50: > 100 µM (inactive)
OVCAR-4
  GI50: > 100 µM (inactive)
KM-20L2
  GI50: > 100 µM (inactive)
HCT-15
  GI50: > 100 µM
SK-MEL-5
  GI50: > 100 µM (inactive)
UACC-257
  GI50: > 100 µM (inactive)
HT-29
  GI50: > 100 µM (inactive)
SNB-78
  GI50: > 100 µM (inactive)
DMS-114
  GI50: 79.8 µM (inactive)
